pIC50: −log10 of the molar value.
Experiments:
liver IR injury in rats = details: cited from earlier work
HMGB1 = biological target: T1, HMGB1 (Mus musculus, UniProt P63158); assay: Affinity purification (pulldown) of HMGB1 from liver lysate with biotinylated oligosaccharides, Western analysis; type: binding; details: biotinylated oligosaccharide 0.1 mM, Western blot
T1 construct: used to pull down endogenous HMGB1 from liver lysate; from tissue; host or cells: liver lysate
T1 sequence (P63158 1-215): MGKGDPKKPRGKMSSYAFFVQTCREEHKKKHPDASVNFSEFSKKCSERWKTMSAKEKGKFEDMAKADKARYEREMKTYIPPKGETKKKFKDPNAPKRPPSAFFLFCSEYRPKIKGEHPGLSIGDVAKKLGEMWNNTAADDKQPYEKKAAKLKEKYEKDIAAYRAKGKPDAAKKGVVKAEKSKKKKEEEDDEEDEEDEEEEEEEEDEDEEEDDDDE
Protocol: The oligosaccharides were converted to biotinylated versions using the same method as described in PCT International Patent Application Serial No. PCT/US2018/059152. Briefly, 12-mers and 6-mer-AXa with a pNP tag (5-10 mg) and 0.5 mg Pd/C were dissolved in 20 mM NaOAc, pH 5.0 in a total volume of 4 ml. Reaction mixture was vacuumed and refilled with H2 three times. The reaction was then incubated at room temperature for 4 h. After that, it was filtered to remove charcoal. The filtered solution was adjusted to pH 8.5 using 500 mM Na2HPO4. Succinimidyl 6-azidohexanoate (20 molar equivalent of starting oligosaccharides) was added and incubated at 37° C. overnight. Reaction was purified by DEAE-HPLC column to generate azido tagged oligosaccharides. PBS (pH7.4) buffer was bubbled with N2 for 5 min to prepare the sample solution of 0.1 M CuSO4, 0.1 M Tris(3-hydroxypropyl-triazolylmethyl)amine (THPTA)(Sigma), 0.15 M sodium ascorbate, 0.01 M azido tagged oligosaccharides and 0.02 M biotin-PEG4-alkyne (Sigma). The mixture of […] and 80 μl CuSO4 was vortexed, then 160 μl sodium ascorbate, 200 μl azido tagged oligomers and 200 μl biotin-PEG4-alkyne was added and bubbled with N2 for 2 min, then incubated at 37° C. overnight. The reaction was purified by DEAE-HPLC column to generate biotinylated products. The biotinylated 12-mers and 6-mer-AXa products were confirmed by ESI-MS.
Briefly, liver lysate was prepared by snap freezing tissue in liquid nitrogen at the time of sacrifice. The tissue was mechanically homogenized in buffer containing 200 mM MES, 500 mM phosphate, and 1 mM EDTA at pH 6 followed by three rounds of freeze thawing. The lysed sample were centrifuged at 10,000× g for 15 min at 4° C. Biotinylated HS oligosaccharides (final concentration 0.1 mM) were mixed with 20 μl of fresh liver lysate (˜0.6 mg) in 100 mM NaCl 20 mM HEPES pH 7.2 and incubated overnight at 4° C. The purification and biotinylated HS bound complex where achieved using avidin-Sepharose and increasing concentration of NaCl washes. […]

[1] = test system: liver IR injury mouse model; assay: Liver ischemia-reperfusion (IR) injury mouse model: plasma markers and histology; type: in vivo; details: 6 h reperfusion, vs IR; for plasma ALT / hepatic necrotic area in ischemic lobe (H&E): 1 mg/kg SC 30 min before 60 min ischemia; for neutrophil infiltration into ischemic liver (immunohistochemistry): 1 mg/kg SC
Protocol: Liver ischemia-reperfusion (IR) surgery was performed by the Animal Surgery Core Laboratory of the McAllister Heart Institute, University of North Carolina Chapel Hill, NC. The mouse experiments were approved by the UNC Animal Care and Use Committees and complied with National Institutes of Health guidelines. Male C57BL/6J mice, approximately 8 weeks old, were used in the IR surgeries. Mice received a subcutaneous (SC) injection of 1 mg/kg oligosaccharide or the equivalent volume of saline 30 minutes prior to the surgical procedure. For the combination treatment of 12-mer-3+6-mer-AXa, equal concentration of each oligosaccharide was combined into a single solution. Under ketamine/xylazine anesthesia, an abdominal midline incision was made to expose the portal vein. A clamp was placed on the portal vein and bile duct to three major liver lobes to cause a 70% hepatic ischemia. Visible blanching of the ischemic liver lobes confirmed correct placement of the clamp. A temporary stitch closure of the muscle and skin over the clamp was used to prevent dehydration during the ischemia phase. Mice stayed on a heating pad and under anesthesia during the ischemia phase (60 minutes). The clamp was removed after 60 minutes and the ischemia liver lobes regained their red color as blood began to reperfusion the tissue, an indicator of correct reperfusion occurring. The incisions were closed in two layers with 5-0 silk sutures and the mice returned to their active state (no anesthesia used during the reperfusion phase). After 6 hours, the mice were re-anaesthetized, blood was drawn via cardiac puncture and ischemia liver lobes were harvested for histology (fixed in 10% formalin).
Plasma ALT was measured using the ALT Infinity reagent (Thermo Fisher) following the manufacturer's instructions. Plasma TNF-α was measured using Mouse TNF-α DuoSet Kit (R&D Systems) according to the manufacturer's instructions. Plasma HMGB1 levels were determined using HMGB1 ELISA Kit (Tecan US) according to the manufacturer's instructions. Plasma syndecan-1 levels were determined using Mouse Syndecan-1 ELISA (CellSciences) according to manufacturer's instructions. Plasms IL-6 levels were determined using Mouse IL-6 ELISA (R&D Systems).
Ischemia liver tissues were fixed in 10% neutral buffered formalin for 24 hours at room temperature, paraffin-embedded, and sectioned. Liver sections (4 μm) were stained with hematoxylin-eosin (H&E) or immunostained with monoclonal antibodies anti-neutrophil (Abcam, Ab 2557, NIMP-R14) followed by goat anti-rat or goat anti-rabbit biotinylated secondary antibodies (Abcam). Embedding, sectioning and H&E staining were performed at the Animal Histopathology and Laboratory Medicine Core Facility at UNC Chapel Hill. H&E analyses were performed by the Translational Pathology Laboratory Core Facility at UNC Chapel Hill using Aperio ImageScope Software (Leica Biosystems, Concord, Canada). IHC images were captured using an HD camera attached to a bright field microscope (Leica DM 1000 LED, Leica Microsystems Inc., IL, USA) and were processed using ImageJ. For neutrophil quantitation, five 100× images were randomly selected for each sample and the average neutrophils/field were reported.
1 mg/kg of 18-mer or equal volume of sterile saline was administered by subcutaneous injection 30 minutes prior to start of the ischemia phase. Ischemia to 70% of the liver was caused by clamping the portal vein and bile duct for 60 minutes. After the clamp was removed, the reperfusion phase last 6 hours before the animals were sacrificed for collection of liver tissue and blood. For surgical controls, a sham operation was performed such that the animal experienced the same anesthesia, abdominal midline incision, and suturing as the IR mice (FIG. 11A).

FXa (Homo sapiens) = test system: T2, FXa (Homo sapiens); assay: Ex vivo plasma FXa activity of mice after liver IR; type: in vivo, mouse; details: 1 mg/kg SC 30 min before ischemia; plasma after 6 h reperfusion; vs IR
T2 construct: purchased Enzyme Research Laboratories (FXa); Cutter Biologics (antithrombin)
Protocol: (§1) Assays were based on a previously published method. Briefly, human FXa (Enzyme Research Laboratories) was diluted to 50 U ml^−1 with PBS. The chromogenic substrate S-2765 (Diapharma) was diluted to 1 mg ml^−1 in water. For in vitro studies, fondaparinux (available under the trade name ARIXTRA) and 12-mer oligosaccharides were dissolved in PBS at various concentrations (0-131 nM). 16 μl of sample was incubated with 60 μl of […] antithrombin (Cutter Biologics) for 2 min at room temperature. Next, 100 μl of FXa was added and incubated for 4 min at room temperature. 30 μl of S-2765 substrate was added and the absorbance of the reaction mixture was measured at 405 nm continuously for 5 min. PBS serves as a control sample. The maximum slope for each sample was convert to percent FXa activity by dividing by the maximum slope for the control sample.
For ex vivo studies, mouse plasma collected after the 6 hour reperfusion period and assayed the same as described above.
Liver ischemia-reperfusion (IR) surgery was performed by the Animal Surgery Core Laboratory of the McAllister Heart Institute, University of North Carolina Chapel Hill, NC. The mouse experiments were approved by the UNC Animal Care and Use Committees and complied with National Institutes of Health guidelines. Male C57BL/6J mice, approximately 8 weeks old, were used in the IR surgeries. […]

human FXa (Homo sapiens) [2] = test system: T3, human FXa (Homo sapiens); details: as previously demonstrated [15]; cited from earlier work
T3 construct: purchased Enzyme Research Laboratories (FXa); Cutter Biologics (antithrombin)

[3] = kidney IR model; cited from earlier work
rat model = details: elevated doses; cited from earlier work
human FXa (Homo sapiens) [4] = biological target: T3, human FXa (Homo sapiens); assay: In vitro anti-FXa activity of oligosaccharides (chromogenic, with antithrombin); type: biochemical; details: for anti-FXa activity (anticoagulant activity): 0-131 nM
Protocol: as §1

MPO = MPO activity in ischemic liver lysate after liver IR; type: in vivo, mouse; details: 1 mg/kg SC, 6 h reperfusion
Protocol: Liver ischemia-reperfusion (IR) surgery was performed by the Animal Surgery Core Laboratory of the McAllister Heart Institute, University of North Carolina Chapel Hill, NC. The mouse experiments were approved by the UNC Animal Care and Use Committees and complied with National Institutes of Health guidelines. Male C57BL/6J mice, approximately 8 weeks old, were used in the IR surgeries. Mice received a subcutaneous (SC) injection of 1 mg/kg oligosaccharide or the equivalent volume of saline 30 minutes prior to the surgical procedure. For the combination treatment of 12-mer-3+6-mer-AXa, equal concentration of each oligosaccharide was combined into a single solution. Under ketamine/xylazine anesthesia, an abdominal midline incision was made to expose the portal vein. […]
Ischemia liver lobe was mechanically homogenized in 50 mM CTAB 50 mM potassium phosphate pH 6 at a ratio of 100 μl buffer per 10 mg tissue. […] Total protein concentration was measured by Bradford assay. 10 μl of liver lysate was incubated with 80 μl of 0.75 mM H2O2 and 110 μl of TMB (TMB liquid reagent, ready-to-use, Sigma) for 10 minutes at 37° C. with gentle agitation. The reaction was stopped by addition of 2.5 M H2SO4 and read at 450 nm. Activity (U/g protein) was calculated as absorbance of sample minus the absorbance of the blank divided by incubation time. […]

T3 sequence (P01008 33-464): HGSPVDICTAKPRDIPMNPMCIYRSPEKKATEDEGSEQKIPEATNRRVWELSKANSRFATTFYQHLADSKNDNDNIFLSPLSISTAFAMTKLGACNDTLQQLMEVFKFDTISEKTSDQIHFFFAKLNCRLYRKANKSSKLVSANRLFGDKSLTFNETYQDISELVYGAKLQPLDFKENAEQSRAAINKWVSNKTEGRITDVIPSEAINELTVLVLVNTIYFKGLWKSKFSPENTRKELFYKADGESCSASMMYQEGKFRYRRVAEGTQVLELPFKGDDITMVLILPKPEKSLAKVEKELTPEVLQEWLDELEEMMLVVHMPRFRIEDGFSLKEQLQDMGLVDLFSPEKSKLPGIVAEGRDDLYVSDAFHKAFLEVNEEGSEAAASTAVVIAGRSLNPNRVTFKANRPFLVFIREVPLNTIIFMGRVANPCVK
T2 sequence (P01008 33-464): as above

Compound	HMGB1 pulldown from liver lysate (HMGB1)	plasma ALT [1]	plasma FXa activity (FXa (Homo sapiens))	hepatic necrotic area in ischemic lobe (H&E) [1]	neutrophil infiltration into ischemic liver (immunohistochemistry) [1]	anti-FXa activity (anticoagulant activity) (human FXa (Homo sapiens) [4])	other results
CC(=N)N1CC[C@H](Oc2ccc([C@H](Cc3ccc4ccc(C(=N)N)cc4c3)C(=O)O)cc2)C1 [DX9065a]							liver IR injury (liver IR injury in rats): no protection
GlcNS6S-GlcA-GlcNS6S3S-IdoA2S-GlcNS6S-GlcA-pNP [6-mer-AXa]	does not pull down HMGB1	no statistical difference in the concentration of ALT	Anticoagulant levels are similar between both treatment groups				anticoagulant activity through inhibition of FXa (human FXa (Homo sapiens) [2]): has anticoagulant activity through inhibition of FXa
GlcNS6S-GlcA-GlcNS6S3S-IdoA2S-GlcNS6S-IdoA2S-GlcNS6S-IdoA2S-GlcNS6S-IdoA2S-GlcNS6S-GlcA-pNP [12-mer-1]	successfully pull down HMGB1	significantly decreased plasma ALT	significantly decreased FXa activity	decreased hepatic necrosis	decreased neutrophil infiltration		renal clearance [3]: renal clearance impairment of 12-mer-1 was demonstrated; toxicity (rat model): no toxicity; pIC50 (human FXa (Homo sapiens) [4]; with antithrombin, substrate S-2765): 7.20; decrease of MPO activity compared to the IR group (MPO): 60%
GlcNS6S-GlcA-GlcNS6S-GlcA-GlcNS6S-GlcA-GlcNS6S-GlcA-GlcNS6S-GlcA-GlcNS6S-GlcA-pNP [12-mer-4]						did not display anti-FXa activity	
GlcNS6S-GlcA-GlcNS6S-IdoA2S-GlcNS6S-IdoA2S-GlcNS6S-IdoA2S-GlcNS6S-IdoA2S-GlcNS6S-GlcA-pNP [12-mer-3]	successfully pull down HMGB1	not 12-mer-3 decreased ALT		not 12-mer-3 decreased ALT and necrosis	did not	did not display anti-FXa activity	MPO activity (MPO): 96.00 U/g protein
GlcNS-GlcA-GlcNS-IdoA2S-GlcNS-IdoA2S-GlcNS-IdoA2S-GlcNS-IdoA2S-GlcNS-GlcA-pNP [12-mer-2]						did not display anti-FXa activity	
